From ChEMBL document CHEMBL1770117 (Bioorg Med Chem Lett, 2011)

What was measured:
[1] = biological target: Metabotropic glutamate receptor 5 (Homo sapiens) (UniProt P41594); test: Positive allosteric modulator activity at mGluR5 receptor expressed in HEK293A cells assessed as maximum glutamate-induced response preincubated for 140 secs before glutamate challenge by calcium fluorescence assay; assay type: functional, cell-based; conditions: HEK293-A
[2] = biological target: T1, Metabotropic glutamate receptor 5 (Rattus norvegicus, UniProt P31424); test: Positive allosteric modulator activity at mGluR5 receptor expressed in HEK293A cells assessed as effect on glutamate-induced calcium flux preincubated for 140 secs before glutamate challenge by calcium fluorescence assay; assay type: functional, cell-based, HEK293-A
Target sequence in this assay (P31424 whole entry, looked up): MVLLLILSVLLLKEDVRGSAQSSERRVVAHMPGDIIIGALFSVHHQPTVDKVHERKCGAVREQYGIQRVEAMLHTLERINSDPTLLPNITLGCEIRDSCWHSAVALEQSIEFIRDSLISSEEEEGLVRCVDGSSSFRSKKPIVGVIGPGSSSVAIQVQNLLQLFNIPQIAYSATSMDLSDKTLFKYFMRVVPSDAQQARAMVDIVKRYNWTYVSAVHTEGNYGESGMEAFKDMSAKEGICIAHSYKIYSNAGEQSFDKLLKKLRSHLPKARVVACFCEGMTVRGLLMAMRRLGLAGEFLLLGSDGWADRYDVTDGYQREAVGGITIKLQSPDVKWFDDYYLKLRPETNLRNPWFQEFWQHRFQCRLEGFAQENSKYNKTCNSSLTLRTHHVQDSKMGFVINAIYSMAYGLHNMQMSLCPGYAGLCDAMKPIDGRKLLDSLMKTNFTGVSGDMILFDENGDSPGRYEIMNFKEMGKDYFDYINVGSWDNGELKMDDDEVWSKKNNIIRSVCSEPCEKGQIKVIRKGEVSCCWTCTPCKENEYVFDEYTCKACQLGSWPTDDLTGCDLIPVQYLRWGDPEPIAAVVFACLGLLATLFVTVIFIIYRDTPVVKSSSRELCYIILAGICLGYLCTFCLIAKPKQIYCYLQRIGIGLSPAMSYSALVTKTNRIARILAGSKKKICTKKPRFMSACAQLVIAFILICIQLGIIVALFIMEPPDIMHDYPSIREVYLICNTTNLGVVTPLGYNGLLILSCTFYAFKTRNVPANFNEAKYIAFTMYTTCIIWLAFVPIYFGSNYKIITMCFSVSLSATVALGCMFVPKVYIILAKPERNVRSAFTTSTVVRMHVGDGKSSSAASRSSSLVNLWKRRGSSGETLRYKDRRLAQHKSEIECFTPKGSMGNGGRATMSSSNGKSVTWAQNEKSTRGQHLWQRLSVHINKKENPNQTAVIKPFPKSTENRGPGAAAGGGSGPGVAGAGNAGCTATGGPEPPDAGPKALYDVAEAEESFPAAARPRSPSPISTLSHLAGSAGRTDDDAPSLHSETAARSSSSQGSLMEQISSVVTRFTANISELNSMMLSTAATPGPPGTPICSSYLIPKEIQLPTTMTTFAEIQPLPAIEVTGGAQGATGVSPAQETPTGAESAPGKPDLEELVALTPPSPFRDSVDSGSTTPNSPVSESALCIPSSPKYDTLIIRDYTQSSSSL

[3] = biological target: T1, Metabotropic glutamate receptor 5; test: Negative allosteric modulator activity at mGluR5 receptor expressed in HEK293A cells assessed as inhibition of glutamate-induced calcium flux preincubated for 140 secs before glutamate challenge by calcium fluorescence assay; assay type: functional, cell-based, HEK293-A
Target sequence in this assay (P31424 whole entry, looked up): as above

[4] = biological target: Metabotropic glutamate receptor 5 (Homo sapiens) (UniProt P41594); test: Negative allosteric modulator activity at mGluR5 receptor expressed in HEK293A cells assessed as maximum glutamate-induced response preincubated for 140 secs before glutamate challenge by calcium fluorescence assay; assay type: functional, cell-based; conditions: HEK293-A
[5] = biological target: T1, Metabotropic glutamate receptor 5; test: Negative allosteric modulator activity at rat mGluR5 receptor expressed in HEK293A cells
Target sequence in this assay (P31424 whole entry): as the sequence (P31424 whole entry, looked up) above

[6] = biological target: Metabotropic glutamate receptor 5 (Rattus norvegicus) (UniProt P31424); test: Positive allosteric modulator activity at rat mGlu5 receptor expressed in HEK293A cells assessed as fold shift in glutamate induced response relative to control; assay type: cell-based; conditions: HEK293-A
[7] = biological target: Metabotropic glutamate receptor 5 (Homo sapiens) (UniProt P41594); test: Ago-Positive allosteric modulator activity at mGluR5 receptor expressed in HEK293A cells assessed as maximum glutamate-induced response preincubated for 140 secs before glutamate challenge by calcium fluorescence assay; assay type: functional, cell-based; conditions: HEK293-A
[8] = biological target: T1, Metabotropic glutamate receptor 5; test: Ago-Positive allosteric modulator activity at mGluR5 receptor expressed in HEK293A cells assessed as effect on glutamate-induced calcium flux preincubated for 140 secs before glutamate challenge by calcium fluorescence assay; assay type: functional, cell-based, HEK293-A
Target sequence in this assay (P31424 whole entry, looked up): as above

[9] = biological target: T1, Metabotropic glutamate receptor 5; test: Positive allosteric modulator activity at rat mGlu5 receptor expressed in HEK293A cells assessed as increase in glutamate induced response; assay type: cell-based, HEK293-A
Target sequence in this assay (P31424 whole entry): as the sequence (P31424 whole entry, looked up) above

[10] = biological target: Metabotropic glutamate receptor 5 (Homo sapiens) (UniProt P41594); test: Partial antagonist activity at mGluR5 receptor expressed in HEK293A cells assessed as maximum glutamate-induced response preincubated for 140 secs before glutamate challenge by calcium fluorescence assay; assay type: functional, cell-based; parameters: scale not given: the % may be the effect or the level left; conditions: HEK293-A
[11] = biological target: T1, Metabotropic glutamate receptor 5; test: Partial antagonist activity at mGluR5 receptor expressed in HEK293A cells assessed as inhibition of glutamate-induced calcium flux preincubated for 140 secs before glutamate challenge by calcium fluorescence assay; assay type: functional, cell-based, HEK293-A
Target sequence in this assay (P31424 whole entry, looked up): as above

Sequence of Metabotropic glutamate receptor 5 (Homo sapiens) (P41594 21-1212 limits assumed): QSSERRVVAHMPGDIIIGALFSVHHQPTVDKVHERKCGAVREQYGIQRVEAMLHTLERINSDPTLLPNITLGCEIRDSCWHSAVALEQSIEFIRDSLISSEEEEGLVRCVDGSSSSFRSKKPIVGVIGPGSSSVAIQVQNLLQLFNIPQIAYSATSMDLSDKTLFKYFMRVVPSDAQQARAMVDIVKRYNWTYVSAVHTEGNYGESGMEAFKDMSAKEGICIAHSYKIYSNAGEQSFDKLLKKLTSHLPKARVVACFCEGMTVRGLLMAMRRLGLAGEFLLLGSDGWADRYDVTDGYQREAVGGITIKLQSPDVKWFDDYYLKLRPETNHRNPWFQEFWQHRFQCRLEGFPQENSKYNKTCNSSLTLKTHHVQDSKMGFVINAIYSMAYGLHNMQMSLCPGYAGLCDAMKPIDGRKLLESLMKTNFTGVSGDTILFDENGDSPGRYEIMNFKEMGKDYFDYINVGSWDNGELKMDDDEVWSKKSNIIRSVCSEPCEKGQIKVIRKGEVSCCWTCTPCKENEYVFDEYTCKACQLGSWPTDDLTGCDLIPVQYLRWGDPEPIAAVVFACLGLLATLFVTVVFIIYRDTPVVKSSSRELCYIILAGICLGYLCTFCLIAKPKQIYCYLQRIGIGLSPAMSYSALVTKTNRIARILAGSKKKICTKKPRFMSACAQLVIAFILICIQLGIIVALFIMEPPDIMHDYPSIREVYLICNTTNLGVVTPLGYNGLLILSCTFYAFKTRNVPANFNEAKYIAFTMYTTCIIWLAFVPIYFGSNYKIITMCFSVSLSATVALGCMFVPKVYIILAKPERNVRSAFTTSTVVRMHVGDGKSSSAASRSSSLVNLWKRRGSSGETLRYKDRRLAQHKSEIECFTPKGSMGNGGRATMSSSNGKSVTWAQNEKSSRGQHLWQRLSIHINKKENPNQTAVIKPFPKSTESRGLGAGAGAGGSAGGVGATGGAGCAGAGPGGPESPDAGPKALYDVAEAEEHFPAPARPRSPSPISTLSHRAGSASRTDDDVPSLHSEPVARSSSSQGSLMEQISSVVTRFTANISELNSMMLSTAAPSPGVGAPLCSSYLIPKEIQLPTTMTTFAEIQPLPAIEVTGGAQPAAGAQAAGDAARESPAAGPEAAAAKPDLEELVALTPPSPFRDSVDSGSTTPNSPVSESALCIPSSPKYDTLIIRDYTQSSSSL
Sequence of Metabotropic glutamate receptor 5 (Rattus norvegicus) (P31424 21-1203 limits assumed): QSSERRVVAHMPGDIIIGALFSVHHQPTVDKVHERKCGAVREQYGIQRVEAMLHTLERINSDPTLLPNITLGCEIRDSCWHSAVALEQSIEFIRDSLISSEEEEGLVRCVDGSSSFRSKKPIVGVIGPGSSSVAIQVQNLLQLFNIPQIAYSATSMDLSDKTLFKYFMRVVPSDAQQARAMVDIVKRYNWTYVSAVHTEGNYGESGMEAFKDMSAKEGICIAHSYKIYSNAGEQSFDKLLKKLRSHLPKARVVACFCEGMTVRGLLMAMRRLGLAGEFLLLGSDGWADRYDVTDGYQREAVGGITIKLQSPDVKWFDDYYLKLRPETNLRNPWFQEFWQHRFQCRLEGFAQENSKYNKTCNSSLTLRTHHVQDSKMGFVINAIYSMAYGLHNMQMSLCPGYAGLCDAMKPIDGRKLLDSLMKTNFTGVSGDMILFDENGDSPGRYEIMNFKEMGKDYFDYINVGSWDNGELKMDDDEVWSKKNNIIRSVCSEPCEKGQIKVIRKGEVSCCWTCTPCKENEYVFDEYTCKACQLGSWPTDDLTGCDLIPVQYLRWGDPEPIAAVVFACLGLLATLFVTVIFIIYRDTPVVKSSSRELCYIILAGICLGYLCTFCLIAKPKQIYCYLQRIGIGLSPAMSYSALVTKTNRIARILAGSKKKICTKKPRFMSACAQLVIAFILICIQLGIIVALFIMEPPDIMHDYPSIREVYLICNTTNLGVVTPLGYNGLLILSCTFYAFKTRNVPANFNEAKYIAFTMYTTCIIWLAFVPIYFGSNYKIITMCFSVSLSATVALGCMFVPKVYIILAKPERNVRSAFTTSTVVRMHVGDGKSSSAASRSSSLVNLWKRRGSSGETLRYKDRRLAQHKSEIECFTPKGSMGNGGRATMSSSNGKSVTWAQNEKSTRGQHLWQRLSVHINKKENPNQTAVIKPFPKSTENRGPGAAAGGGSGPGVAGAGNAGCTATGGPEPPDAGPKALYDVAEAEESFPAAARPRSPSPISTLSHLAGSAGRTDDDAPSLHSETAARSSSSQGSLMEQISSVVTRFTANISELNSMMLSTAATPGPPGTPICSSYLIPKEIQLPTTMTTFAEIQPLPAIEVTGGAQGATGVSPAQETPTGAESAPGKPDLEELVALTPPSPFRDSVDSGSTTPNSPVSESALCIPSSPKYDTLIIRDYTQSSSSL

Structure (SMILES)	Activity [1]	EC50 [2]	IC50 [3]	Activity [4]	other results
O=C(c1ccc(F)cc1F)N1CCCC1c1nc(-c2cccc(F)c2)no1 (centres undefined)	61%	10 µM			
O=C(C1CCC1)N1CCCC1c1nc(-c2cccc(Cl)c2)no1 (racemic)			10 µM	25%	
Cc1cccc(-c2noc([C@H]3CCCCN3C(=O)C3CCC3)n2)c1			0.3 µM		
O=C(C1CCC1)N1CCC[C@@H](c2nc(-c3cccc(F)c3)no2)C1			> 10 µM	60%	
O=C(c1cccc(F)c1)N1CCCC1c1nc(-c2cccc(F)c2)no1 (centres undefined)	47%	2.6 µM			
O=C(C1CCC1)N1CCC[C@@H]1c1nc(-c2cccc(F)c2)no1	68.4%	0.53 µM			
O=C(C1CCC1)N1CCC[C@H](c2nc(-c3ccccn3)no2)C1			> 10 µM	33%	IC50 [5]: 8.7 µM
O=C(C1CCC1)N1CCC[C@H](c2nc(-c3cccs3)no2)C1			9.3 µM	67%	
O=C(C1CCC1)N1CCC[C@H](c2nc(-c3cccc(F)c3)no2)C1			2.4 µM	31%	
O=C(c1ccc(F)cc1F)N1CCCC[C@@H]1c1nc(-c2cccc(F)c2)no1	95%	2.9 µM			
Cc1ccc(C#Cc2cncnc2)cc1					fold change (FC) [6]: 4.2
O=C(c1ccc(F)cc1)N1CCCC[C@@H]1c1nc(-c2cccc(F)c2)no1	91%				
Cc1cccc(-c2noc([C@H]3CCCCN3C(=O)C3CCCCC3)n2)c1			2.5 µM	9.2%	
O=C(C1CCC1)N1CCC[C@H](c2nc(-c3cccc(Cl)c3)no2)C1			0.2 µM	2.4%	
O=C(c1cccs1)N1CCCC[C@@H]1c1nc(-c2cccc(F)c2)no1	34%				
O=C(c1cccc(F)c1)N1CCCC[C@@H]1c1nc(-c2cccc(F)c2)no1	59%	0.46 µM			
O=C(C1CCC1)N1CCC[C@@H](c2nc(-c3ccccn3)no2)C1			9.9 µM	19%	
O=C(C1CCC1)N1CCCC[C@@H]1c1nc(-c2cccc(F)c2)no1 (stereo in doubt; 22b) [listing 1 of 2 here]		0.65 µM			
O=C(C1CCC1)N1CCCC[C@@H]1c1nc(-c2cccs2)no1			3.5 µM		
O=C(C1CCCC1)N1CCCC[C@@H]1c1nc(-c2cccc(F)c2)no1					Activity [7]: 80%; EC50 [8]: 0.31 µM
COc1cccc(-c2noc([C@@H]3CCCN(C(=O)C4CCC4)C3)n2)c1			> 10 µM	54%	
Cc1cccc(-c2noc([C@@H]3CCCN(C(=O)C4CCC4)C3)n2)c1			4.7 µM	14%	
O=C(C1CCC1)N1CCCC[C@@H]1c1nc(-c2cccc(F)c2)no1 (stereo in doubt; 22b) [listing 2 of 2 here]	38%				
O=C(C1CCC1)N1CCCC[C@H]1c1nc(-c2ccccn2)no1			10 µM		
Cc1cccc(-c2noc([C@H]3CCCCN3C(=O)c3ccc(F)c(F)c3)n2)c1			10 µM	46%	
O=C(C1CCC1)N1CCCC1c1nc(-c2cccc(F)c2)no1 (racemic)	64%				
O=C(c1cccs1)N1CCCC1c1nc(-c2cccc(F)c2)no1 (centres undefined)	60%	0.43 µM			
O=C(C1CCC1)N1CCCC1c1nc(-c2ccc(F)cc2)no1 (racemic)	72%	2.7 µM			

Structure (SMILES)	Activity [1]	EC50 [2]	IC50 [3]	Activity [4]	other results
Cc1cccc(-c2noc([C@H]3CCCN(C(=O)C4CCC4)C3)n2)c1			0.7 µM	2.5%	
O=C(C1CCC1)N1CCCC[C@H]1c1nc(-c2cccc(F)c2)no1		0.7 µM			
O=C(C1CCCC1)N1CCCC1c1nc(-c2cccc(F)c2)no1 (centres undefined)	75%	1 µM			
O=C(c1ccc(F)cc1F)N1CCC[C@H](c2nc(-c3ccccn3)no2)C1					fold change (FC) [6]: 14; EC50 [9]: 0.24 µM
Cc1cccc(-c2noc([C@H]3CCCCN3C(=O)c3cccs3)n2)c1			0.73 µM	0.9%	
Cc1cccc(-c2noc([C@@H]3CCCCN3C(=O)C3CCC3)n2)c1			0.5 µM		
O=C(C1CC1)N1CCCC1c1nc(-c2cccc(F)c2)no1 (centres undefined)	68%	2.9 µM			
O=C(C1CC1)N1CCCC[C@@H]1c1nc(-c2cccc(F)c2)no1					Activity [7]: 70%; EC50 [8]: 0.08 µM
O=C(C1CCC1)N1CCC[C@@H](c2nc(-c3cccc(Cl)c3)no2)C1			3.1 µM	18%	
Cc1cccc(-c2noc(C3CCCN3C(=O)C3CCC3)n2)c1 (racemic)			2.4 µM	34%	
O=C(C1CCC1)N1CCC[C@H]1c1nc(-c2cccc(F)c2)no1	57.3%	7 µM			
O=C(C1CCC1)N1CCCC[C@@H]1c1nc(-c2cccc(F)c2)no1 (stereo in doubt; (R)-20c)		0.6 µM			
Cc1cccc(-c2noc([C@H]3CCCCN3C(=O)c3ccc(F)cc3)n2)c1			10 µM	47%	
O=C(C1CCCCC1)N1CCCC[C@@H]1c1nc(-c2cccc(F)c2)no1	58%	3.5 µM			
Cc1cccc(-c2noc([C@H]3CCCCN3C(=O)C3CC3)n2)c1					Activity [10]: 16%; IC50 [11]: 0.28 µM
O=C(c1ccc(F)c(F)c1)N1CCCC1c1nc(-c2cccc(F)c2)no1 (centres undefined)	62%	3.7 µM			
O=C(C1CCC1)N1CCCC[C@H]1c1nc(-c2cccs2)no1			2.6 µM		
COc1cccc(-c2noc([C@@H]3CCCCN3C(=O)C3CCC3)n2)c1			0.08 µM		
O=C(c1ccc(F)cc1)N1CCC[C@H](c2nc(-c3cccs3)no2)C1					fold change (FC) [6]: 20; EC50 [9]: 0.17 µM
O=C(C1CCC1)N1CCCC1c1nc(-c2cccc(F)c2)no1 (stereo in doubt; 24b) [listing 1 of 2 here]	63%				
Cc1cccc(-c2noc([C@H]3CCCCN3C(=O)c3cccc(F)c3)n2)c1			4.7 µM	16%	
COc1cccc(-c2noc([C@H]3CCCN(C(=O)C4CCC4)C3)n2)c1			1.8 µM	2.1%	
O=C(c1ccc(F)c(F)c1)N1CCCC[C@@H]1c1nc(-c2cccc(F)c2)no1	93%	1.4 µM			
O=C(C1CCC1)N1CCCC1c1nc(-c2cccc(F)c2)no1 (stereo in doubt; 24b) [listing 2 of 2 here]		1.5 µM			
Cc1cccc(-c2noc([C@H]3CCCCN3C(=O)C3CCCC3)n2)c1					Activity [10]: 24%; IC50 [11]: 0.6 µM
O=C(c1ccc(F)cc1)N1CCCC1c1nc(-c2cccc(F)c2)no1 (centres undefined)	59%	3.6 µM			
COc1cccc(-c2noc([C@H]3CCCCN3C(=O)C3CCC3)n2)c1			0.3 µM		
